Drawing on ChEMBL document CHEMBL1156195, “Antimicrobial selaginellin derivatives from Selaginella pulvinata” (Bioorg Med Chem Lett, 2010), this text covers IC50 and MIC for two compounds.

One assay has as its system Candida albicans. Briefly: Antifungal activity against Candida albicans. It is filed as functional, organism-based.
The test system of a further assay is Staphylococcus aureus. Briefly: Antibacterial activity against Staphylococcus aureus. The class given is functional, organism-based.

In brackets after ≈: the same amount, converted by molar mass. Activity calls are given as the source filed them. The rule behind the calls is not given here.

Consider `Clc1ccc(COC(Cn2ccnc2)c2ccc(Cl)cc2Cl)c(Cl)c1.O=[N+]([O-])O` (centres undefined) [MICONAZOLE NITRATE], for which the IC50 in the assay on Candida albicans is under 1.2 µg/mL.
For the compound `CCOc1ccc(C(=C2C=CC(=O)C=C2)c2c(-c3ccc(O)cc3)ccc(CO)c2C#Cc2ccc(O)cc2)cc1` [SELAGINELLIN D], in the assay with Staphylococcus aureus, the half-maximal inhibitory concentration (IC50) entry is “Not Active” and the MIC entry is “inactive”. The IC50 in the assay with Candida albicans came to 5.3 µg/mL (≈ 9.8 µM).
